The test system of assay [1] is HT1080 cells. As to the kind of experiment: Flow cytometry of GSAO- and annexin V-labeled cells. In kind it is cell-based, human. How it is done:
HT1080 cells were treated for 20 h with 1 μg.mL^−1 camptothecin (Calbiochem, San Diego, Calif.), then detached with PBS containing 2.5 mM EDTA and combined with cells that had detached during incubation. The cells were washed twice with annexin V binding buffer (10 mM Hepes, 140 mM NaCl, 2.5 mM CaCl2, pH 7.4), and 2×10^5 cells per treatment were incubated in 100 μL annexin V binding buffer containing 10 μM GSAO-F or GSAA-F for 15 min at room temperature with shaking. The cells were washed twice, then incubated for 15 min in 100 μL annexin V binding buffer containing 5 μl phycoerythrin-conjugated annexin V (annexin V-PE) (PharMingen, San Diego, Calif.) and 1 μl of a 100 μg.mL^−1 solution of propidium iodide (Molecular Probes, Eugene, Oreg.). The total volume was then made up to 500 μl with annexin V binding buffer, and the samples were transferred to ice. Flow cytometry was performed using a FACSstar flow cytometer (Beckton Dickson). Results are derived from 10^4 cells per sample. To test the effect of caspase inhibition on to GSAO-F uptake, cells were treated with camptothecin in the absence or presence of 10 μg.mL^−1 Z-VAD-FMK (carbobenzoxy-valyl-alanyl-aspartyl-[O-methyl]-fluoromethylketone) (Calbiochem-Novabiochem, San Diego, Calif.), then detached, washed and incubated in annexin V binding buffer containing 10 μM GSAO-F for 15 min. The cells were washed twice and subjected to flow cytometry.
For orientation: In flow cytometry, cells or beads pass a laser one at a time.

The test system of assay [2] is HT1080 cells. Kind of assay: Confocal microscopy of GSAO- and annexin V-labelled cells. Conditions: camptothecin-treated; 10 μM GSAO-F. In kind it is cell-based, human. How it is done: HT1080 cells were treated for 20 h with 1 μg.mL^−1 camptothecin, then detached with PBS containing 10 mM EDTA, washed with annexin V binding buffer, and incubated for 15 min in annexin V binding buffer containing 10 μM GSAO-F and 1:20 (v/v) Alexa594conjugated annexin V (Molecular Probes, Eugene, Oreg.). The cells were then washed twice with annexin V binding buffer and pipetted onto a microscope slide. Transverse cell sections were captured using an Olympus BX60 microscope and an Optiscan F900e confocal unit and software (Optiscan, Notting Hill, Austrlia).

Assay [3] has as its system HT1080 cells. Kind of assay: Labelling of cells with GSAO-B (lysate SDS-PAGE, avidin-peroxidase blot, PDI Western blot). In kind it is cell-based, human. Conditions: 5-fold molar excess (50 μM) of dimercaptopropanol. How it is done:
HT1080 cells were for 20 h with 1 μg.mL^−1 camptothecin and labeled with 10 μM GSAO and annexin V-PE as described above for labelling with GSAO-F and annexin V-PE. Cells were sorted on the basis of their annexin V-PE fluorescence, washed three times with PBS and 4×10^4 cells were lysed in 40 μL of RIPA buffer (50 mM Tris-HCl, 0.5 M NaCl, 1% Triton X-100, 1% sodium deoxycholate, 0.1% SDS, 10 μM leupeptin, 10 μM aprotinin, 2 mM phenylmethylsulfonyl fluoride, 5 mM EDTA, pH 8.0) at 4° C. Equal amounts of lysate were electrophoresed on an 8-16% gradient SDS-polyacrylamide gel (Gradipore, Sydney), transferred to […] (PVDF) membrane (Millipore, Bedford, Mass.) and biotinylated proteins were detected with a 1:2000 dilution of avidin-peroxidase (Molecular Probes, Eugene, Oreg.). To identify proteins that had incorporated GSAO-B, 20 μl of RIPA lysate was incubated with 5 μl streptavidin-dynabeads (Dynal Biotech, Oslo, Norway) for 15 min at 4° C. The beads were then washed twice with RIPA buffer, resuspended in 20 μl SDS-PAGE loading buffer, resolved on SDS-PAGE, transferred to polyvinylidene difluoride membrane, and the PDI was detected by Western blot using 2 μg.mL^−1 of anti-PDI polyclonal antibodies (Donoghue et al., 2000) and 1:2000 dilution of goat anti-rabbit peroxidase-conjugated antibodies (Dako Corporation, Carpinteria, Calif.). […]
A general note: A western blot detects proteins with antibodies after separation by electrophoresis.

Assay [4] has as its system murine Lewis lung tumours. Kind of assay: In vivo near-infrared imaging of Lewis lung tumours. Details: species or system C57BL/6 mice. Conditions: 0.8 mg/kg S.C. How it is done: (§1) C57BL/6 (Jackson Labs, Bar Harbor, ME) mice bearing S.C. Lewis lung tumours, SCID (Massachusetts General Hospital, Boston, Mass.) bearing S.C. BxPC3 tumours or TRAMP (Greenberg et al., 1995) mice were given 0.8 mg/kg GSAO-Cy™5.5, GSAA-Cy™5.5 or Cy™5.5 dye alone in 0.1 mL of PBS containing 20 mM glycine by S.C. injection in the right hind flank. The S.C. tumours were established in the proximal dorsum.
(§2) The imaging system utilised a Leica Microsystems fluorescence microscope (Allendale, N.J.) with a 100 W halogen lamp source and a filter system for CY™5.5 (Chroma Technology, Brattleboro, Vt.). Anaesthetised mice were restrained in a light proof box and fluorescence detected by a 12-bit monochrome charged coupled device (Photometrics, Tuscon, Ariz.). Exposure time was 8 seconds with images digitally acquired as 16-bit Tiff files in IPLab (Scanalytics, Fairfax, Va.). White light images of the tumours were also acquired.

Assay [5] relates to human BxPC-3 pancreatic carcinoma tumours. As to the kind of experiment: In vivo near-infrared imaging of BxPC-3 tumours. The arrangement: species or system SCID mice. Conditions: 0.8 mg/kg S.C. How it is done:
as §1, §2

Residues, ends and D or L forms follow the SMILES beside them. *: point of attachment. Cbz = O=C(OCc1ccccc1)*; CH2F = FC*

Regarding `O=[As]c1ccc(NC(=O)CSC[C@H](NC(=O)CC[C@H](NC(=O)CCSCC(=O)Nc2ccc(-c3c4ccc(=O)cc-4oc4cc(O)ccc34)c(C(=O)O)c2)C(=O)O)C(=O)NCC(=O)O)cc1` (some centres unmarked) [GSAO-F], in the assay with HT1080 cells [1] (10 μM label, 15 min, camptothecin-treated vs untreated cells), the “increase in the proportion of cells whose fluorescein fluorescence was greater than 1027 units” value was found to be 8.6 fold. The molecule further displayed a mean fluorescein fluorescence in the assay on HT1080 cells [1] (camptothecin-treated cell population, 10 μM label) of 1400 units. In the assay with HT1080 cells [1] (untreated cells, 10 μM label), this molecule gave a mean fluorescein fluorescence of 255 units. Besides, the “binding to apoptotic and dead cells” value in the assay on HT1080 cells [1] (with annexin V-PE and propidium iodide) was “bound to both apoptotic and dead cells”. Further, in the assay on HT1080 cells [2], the “distribution in annexin V-positive cells” value is recorded as “distributed in the cytoplasm” and the “fluorescence in cells that did not label with annexin V” value was “negligible”.

Turning to `COC(=O)C[C@H](NC(=O)[C@H](C)NC(=O)[C@@H](NC(=O)OCc1ccccc1)C(C)C)C(=O)CF` [Z-VAD-FMK, carbobenzoxy-valyl-alanyl-aspartyl-[O-methyl]-fluoromethylketone, reference compound] (Cbz-Val-Ala-Asp(OMe)-CH2F), the “effect on the increase in GSAO-F positive cells seen with camptothecin treatment” value in the assay with HT1080 cells [1] (Z-VAD-FMK 10 μg.mL−1 during camptothecin treatment) is given as “substantially blocked”.

Consider `CC[C@@]1(O)C(=O)OCc2c1cc1n(c2=O)Cc2cc3ccccc3nc2-1` [camptothecin, reference compound], for which the “increase in the proportion of cells with phycoerythrin fluorescence greater than 100 fluorescence units (annexin V-positive)” value in the assay with HT1080 cells [1] (camptothecin 1 μg.mL−1, 20 h vs untreated) was 7.3 fold.

Consider `OCC(S)CS` (centres unmarked) [dimercaptopropanol, 2,3-dimercaptopropanol, reference compound], for which, in the assay on HT1080 cells [3], the “effect on labelling of apoptotic cellular proteins by GSAO-B” value is given as “ablated”.

Regarding Cy™5.5, the “labelling of Lewis lung tumours by controls” value in assay [4] is “Neither GSAA-Cy™5.5 nor Cy™5.5 labelled”. For the same molecule, in assay [5], the “tumour labelling at 24 hours” value is given as “Neither GSAA-Cy™5.5 (FIG. 11d(B)) nor Cy™5.5 (FIG. 11d(D)) labelled BxPC3 tumours”.

For the origin of these results see patent publication US7635464B2, “Selective targeting of apoptotic cells” (New South Innovations Pty Limited, priority 2001, dated 2009).
